Measured values taken from ChEMBL document CHEMBL1201862, “PubChem BioAssay data set” (2004).
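Cells were grown in 96-well plates and exposed to each compound for 48 hours at five concentrations; endpoints were interpolated linearly between bracketing concentrations, or set to the highest concentration if not reached. The concentration for 50% growth inhibition is given as GI50.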 Active and inactive are the calls of the source. Cut-off read from the data, not from the text of the source: active = GI50 up to about 1.1 µM and inactive = higher.

What was measured:
Experiment in all cases: inhibition of tumour cell growth, NCI panel, 48 h
[1] = test system: LOX IMVI
[2] = test system: U-251
[3] = test system: NCI-H522
[4] = test system: MDA-MB-435
[5] = test system: M14
[6] = test system: SF-268
[7] = test system: RPMI-8226
[8] = test system: DU-145
[9] = test system: TK-10
[10] = test system: OVCAR-5
[11] = test system: MCF7
[12] = test system: MDA-MB-231
[13] = test system: 786-0
[14] = test system: SK-MEL-28
[15] = test system: NCI-H226
[16] = test system: SN12C
[17] = test system: CAKI-1
[18] = test system: CCRF-CEM
[19] = test system: RXF 393
[20] = test system: SF-295

SMILES: CC(C)(C)C1CCC2c3c([nH]c4ccccc34)C3C(=O)N(c4ccc5c(c4)C(=O)c4ccccc4C5=O)C(=O)C3C2C1 (stereo not given)
- GI50 [1]: > 100 µM (inactive)
- GI50 [2]: > 100 µM (inactive)
- GI50 [3]: > 100 µM (inactive)
- GI50 [4]: > 100 µM (inactive)
- GI50 [5]: > 100 µM (inactive)
- GI50 [6]: > 100 µM (inactive)
- GI50 [7]: > 100 µM (inactive)
- GI50 [8]: > 100 µM (inactive)
- GI50 [9]: > 100 µM (inactive)
- GI50 [10]: > 100 µM (inactive)
- GI50 [11]: > 100 µM (inactive)
- GI50 [12]: > 100 µM (inactive)
- GI50 [13]: > 100 µM (inactive)
- GI50 [14]: > 100 µM (inactive)
- GI50 [15]: > 100 µM (inactive)
- GI50 [16]: > 100 µM (inactive)
- GI50 [17]: > 100 µM (inactive)
- GI50 [18]: > 100 µM (inactive)
- GI50 [19]: > 100 µM (inactive)
- GI50 [20]: > 100 µM (inactive)

SMILES: CCCCCCOc1ccc(C(=O)NO)cc1
- GI50 [1]: 2.17 µM (inactive)
- GI50 [2]: 10.4 µM (inactive)
- GI50 [3]: 3.14 µM (inactive)
- GI50 [4]: 9.68 µM (inactive)
- GI50 [5]: 11.9 µM (inactive)
- GI50 [6]: 5.64 µM (inactive)
- GI50 [7]: 2.82 µM (inactive)
- GI50 [8]: 8.05 µM (inactive)
- GI50 [9]: 17.1 µM (inactive)
- GI50 [10]: 11.6 µM (inactive)
- GI50 [11]: 25.8 µM (inactive)
- GI50 [12]: 11 µM (inactive)
- GI50 [13]: 3.68 µM (inactive)
- GI50 [14]: 16 µM (inactive)
- GI50 [15]: 9.46 µM (inactive)
- GI50 [16]: 10.2 µM (inactive)
- GI50 [17]: 4.44 µM (inactive)
- GI50 [18]: 0.362 µM (active)
- GI50 [19]: 11.3 µM (inactive)
- GI50 [20]: 8.26 µM (inactive)

SMILES: O=C1NC(N2CCOCC2)=N/C1=C\c1cccs1
- GI50 [1]: > 100 µM (inactive)
- GI50 [2]: > 100 µM (inactive)
- GI50 [3]: > 100 µM (inactive)
- GI50 [4]: > 100 µM (inactive)
- GI50 [5]: > 100 µM (inactive)
- GI50 [6]: > 100 µM (inactive)
- GI50 [7]: > 100 µM (inactive)
- GI50 [8]: > 100 µM (inactive)
- GI50 [9]: > 100 µM (inactive)
- GI50 [10]: > 100 µM (inactive)
- GI50 [11]: > 100 µM (inactive)
- GI50 [12]: > 100 µM (inactive)
- GI50 [13]: > 100 µM (inactive)
- GI50 [14]: > 100 µM (inactive)
- GI50 [15]: > 100 µM (inactive)
- GI50 [16]: > 100 µM (inactive)
- GI50 [17]: > 100 µM (inactive)
- GI50 [18]: > 100 µM (inactive)
- GI50 [19]: > 100 µM (inactive)
- GI50 [20]: > 100 µM (inactive)

SMILES: CCCC1=C(OC)C(=O)c2c(C)cc(Cl)nc2C1=O
- GI50 [1]: 2.01 µM (inactive)
- GI50 [2]: 6.07 µM (inactive)
- GI50 [3]: 2.43 µM (inactive)
- GI50 [4]: 1.84 µM (inactive)
- GI50 [5]: 7 µM (inactive)
- GI50 [6]: 7.08 µM (inactive)
- GI50 [7]: 2.16 µM (inactive)
- GI50 [8]: 15.1 µM (inactive)
- GI50 [9]: 19.9 µM (inactive)
- GI50 [10]: 14.5 µM (inactive)
- GI50 [11]: 2.47 µM (inactive)
- GI50 [12]: 5.53 µM (inactive)
- GI50 [13]: 2.37 µM (inactive)
- GI50 [14]: 6.81 µM (inactive)
- GI50 [15]: 16.7 µM (inactive)
- GI50 [16]: 4.14 µM (inactive)
- GI50 [17]: 8.97 µM (inactive)
- GI50 [18]: 0.286 µM (active)
- GI50 [19]: 7.67 µM (inactive)
- GI50 [20]: 14.7 µM (inactive)

SMILES: CCCCCCCCCCCCCCCCCCOC(COP(=O)(O)OCC1OC(n2cc(F)c(=O)[nH]c2=O)CC1O)COP(=O)(O)OCC1OC(n2ccc(N)nc2=O)C(O)C1O (stereo not given)
- GI50 [1]: 1.14 µM (inactive)
- GI50 [2]: 7.13 µM (inactive)
- GI50 [3]: > 40.2 µM (inactive)
- GI50 [4]: 19.5 µM (inactive)
- GI50 [5]: 6.34 µM (inactive)
- GI50 [6]: 0.536 µM (active)
- GI50 [7]: 10.9 µM (inactive)
- GI50 [8]: 3.33 µM (inactive)
- GI50 [9]: 33.2 µM (inactive)
- GI50 [10]: 66.8 µM (inactive)
- GI50 [11]: 2.37 µM (inactive)
- GI50 [12]: > 100 µM (inactive)
- GI50 [13]: 2.82 µM (inactive)
- GI50 [14]: 64.6 µM (inactive)
- GI50 [15]: > 87.1 µM (inactive)
- GI50 [16]: 23.9 µM (inactive)
- GI50 [17]: 13.2 µM (inactive)
- GI50 [18]: 4.81 µM (inactive)
- GI50 [19]: 16.4 µM (inactive)
- GI50 [20]: 2.58 µM (inactive)

SMILES: O=C1CC2CC(CC3(CO3)C2)C1F (stereo not given)
- GI50 [1]: > 100 µM (inactive)
- GI50 [2]: > 100 µM (inactive)
- GI50 [3]: > 100 µM (inactive)
- GI50 [4]: > 100 µM (inactive)
- GI50 [5]: > 100 µM (inactive)
- GI50 [6]: > 100 µM (inactive)
- GI50 [7]: > 100 µM (inactive)
- GI50 [8]: > 100 µM (inactive)
- GI50 [9]: > 100 µM (inactive)
- GI50 [10]: > 100 µM (inactive)
- GI50 [11]: > 100 µM (inactive)
- GI50 [12]: > 100 µM (inactive)
- GI50 [13]: > 100 µM (inactive)
- GI50 [14]: > 100 µM (inactive)
- GI50 [15]: > 100 µM (inactive)
- GI50 [16]: > 100 µM (inactive)
- GI50 [17]: > 100 µM (inactive)
- GI50 [18]: > 100 µM (inactive)
- GI50 [19]: > 100 µM (inactive)
- GI50 [20]: > 100 µM (inactive)

SMILES: COc1ccc2c(c1)CCN1CCCc3ccc(OC)cc3C21 (stereo not given)
- GI50 [1]: 41.2 µM (inactive)
- GI50 [2]: 58.9 µM (inactive)
- GI50 [3]: 32.3 µM (inactive)
- GI50 [4]: 36.4 µM (inactive)
- GI50 [5]: 24.2 µM (inactive)
- GI50 [6]: 82.6 µM (inactive)
- GI50 [7]: 31.6 µM (inactive)
- GI50 [8]: > 100 µM (inactive)
- GI50 [9]: > 100 µM (inactive)
- GI50 [10]: 89.9 µM (inactive)
- GI50 [11]: 31.3 µM (inactive)
- GI50 [12]: 49.8 µM (inactive)
- GI50 [13]: 49.1 µM (inactive)
- GI50 [14]: > 100 µM (inactive)
- GI50 [15]: 38.5 µM (inactive)
- GI50 [16]: 50 µM (inactive)
- GI50 [17]: 41.8 µM (inactive)
- GI50 [18]: 42.6 µM (inactive)
- GI50 [19]: 41.4 µM (inactive)
- GI50 [20]: 24.6 µM (inactive)
